Laboratory results reported in US8952024B2, “Herbicidal pyrimidone derivatives” (E I du Pont de Nemours and Company, priority 2009, dated 2015).

Assays:
Format in all cases: in vivo
[1] = tested on: umbrella sedge (Cyperus difformis); test: Test B flooded paddy test; conditions: for Plant response rating, Flood, Sedge, Umbrella: 250 g ai/ha, flooded paddy test, visual rating on 0 to 100 scale (0 no effect, 100 complete control) after 13 to 15 days; for Plant response rating, Sedge, Umbrella: Flood (flooded paddy test), 62 g ai/ha, 13 to 15 days
How it was run: (§1)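 2-leaf seedlings; pots flooded 3 cm over soil at treatment; cpd dosed into floodwater, depth kept constant. Greenhouse 13–15 d. Visual rating vs untreated controls, 0 = no effect, 100 = complete control.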

[2] = tested on: ducksalad (Heteranthera limosa); test: Test B flooded paddy test; conditions: for Plant response rating, Flood, Ducksalad: 250 g ai/ha, flooded paddy test, visual rating on 0 to 100 scale (0 no effect, 100 complete control) after 13 to 15 days; for Plant response rating, Ducksalad: Flood (flooded paddy test), 62 g ai/ha, 13 to 15 days
How it was run: as §1

rice (Oryza sativa) = test: Test B flooded paddy test; conditions: for Plant response rating, Flood, Rice: 250 g ai/ha, flooded paddy test, visual rating on 0 to 100 scale (0 no effect, 100 complete control) after 13 to 15 days; for Plant response rating, Rice: Flood (flooded paddy test), 62 g ai/ha, 13 to 15 days
How it was run: as §1

[3] = tested on: barnyardgrass (Echinochloa crus-galli); test: Test B flooded paddy test; conditions: for Plant response rating, Flood, Barnyardgrass: 250 g ai/ha, flooded paddy test, visual rating on 0 to 100 scale (0 no effect, 100 complete control) after 13 to 15 days; for Plant response rating, Barnyardgrass: Flood (flooded paddy test), 62 g ai/ha, 13 to 15 days
How it was run: as §1

[4] = tested on: goosegrass (Eleusine indica); test: Test B pre-/postemergence plant response; conditions: Preemergence, 62 g ai/ha; scale 0 to 100, 0 no effect, 100 complete control
[5] = tested on: windgrass (Apera spica-venti); test: Test B postemergence plant response; conditions: Postemergence, scale 0 (no effect) to 100 (complete control)
How it was run: (§2)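 Plants at the 1- to 4-leaf stage (2 to 18 cm tall), grown in pots of peat moss/vermiculite medium with wetting agent and starter nutrients, received postemergence applications of test chemicals. After 13 to 15 days in a greenhouse, injury was rated visually against untreated controls on a 0 (no effect) to 100 (complete control) scale.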

[6] = tested on: chickweed (Stellaria media); test: Test B postemergence plant response; conditions: Postemergence; for Chickweed plant response rating: 250 g ai/ha, scale 0 to 100
How it was run: as §2

[7] = tested on: winter barley (Hordeum vulgare); test: Test B postemergence plant response; conditions: Postemergence; for Barley plant response rating: 250 g ai/ha, scale 0 to 100
How it was run: as §2

[8] = tested on: canarygrass (Phalaris minor); test: Test B postemergence plant response; conditions: Postemergence; for Canarygrass plant response rating: 250 g ai/ha, scale 0 to 100
How it was run: as §2

[9] = tested on: pigweed (Amaranthus retroflexus); test: Test B pre-/postemergence plant response
How it was run: (§3)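 Greenhouse herbicide screen. Pre- and postemergence (1- to 4-leaf) spray of compound in solvent/surfactant mixture; loam–sand soil for pre, peat/vermiculite medium for post. Visual control rating 0–100 at 13 to 15 days after treatment.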

[10] = tested on: galium (catchweed bedstraw, Galium aparine); test: Test B pre-/postemergence plant response; conditions: Preemergence; for Galium plant response rating: 125 g ai/ha
How it was run: as §3

[11] = tested on: nightshade (eastern black nightshade, Solanum ptycanthum); test: Test B pre-/postemergence plant response; conditions: Preemergence; for Nightshade plant response rating: 125 g ai/ha
How it was run: as §3

[12] = tested on: sunflower (common oilseed sunflower, Helianthus annuus); test: Test B pre-/postemergence plant response; conditions: Preemergence; for Sunflower plant response rating: 125 g ai/ha
How it was run: as §3

wild oat (Avena fatua) = test: Test B pre-/postemergence plant response
How it was run: as §3

[13] = scale 0 to 100, 0 is no effect, 100 is complete control
[14] = 125 g ai/ha, visual rating after 13 to 15 days
[15] = 31 g ai/ha, scale 0 to 100 (0 no effect, 100 complete control)
[16] = 62 g ai/ha, scale 0 (no effect) to 100 (complete control), 13 to 15 days
[17] = 125 g ai/ha, visual rating after 13 to 15 days, scale 0 (no effect) to 100 (complete control)
[18] = 250 g ai/ha, Preemergence, 0 to 100 scale
[19] = Postemergence, 62 g ai/ha, scale 0 (no effect) to 100 (complete control), 13 to 15 days
[20] = Postemergence, 125 g ai/ha, visual rating after 13 to 15 days, scale 0 (no effect) to 100 (complete control)
[21] = Preemergence, 31 g ai/ha, scale 0 to 100 (0 no effect, 100 complete control)
[22] = Preemergence, 125 g ai/ha, 0 to 100 scale
[23] = 62 g ai/ha, scale 0 to 100, 0 no effect, 100 complete control
[24] = scale of 0 to 100 where 0 is no effect and 100 is complete control

## Cc1ccc(-n2c(-c3cccc(Cl)c3)ncc(C(=O)C3=C(O)CCCC3=O)c2=O)cc1 [Compound 39]
[1]
  Plant response rating, Flood, Sedge, Umbrella: 90
[1]; [13]
  Plant response rating, Sedge, Umbrella: 90
[2]
  Plant response rating, Flood, Ducksalad: 90
[2]; [13]
  Plant response rating, Ducksalad: 80
Rice (Oryza sativa)
  Plant response rating, Flood, Rice: 15
Rice (Oryza sativa); [13]
  Plant response rating, Rice: 0
[3]
  Plant response rating, Flood, Barnyardgrass: 30
[3]; [13]
  Plant response rating, Barnyardgrass: 0
[4]
  Plant response rating, Goosegrass: 100
[5]; 62 g ai/ha, 13 to 15 days
  Plant response rating, Windgrass: 0
[5]; [14]
  Plant response rating, Windgrass: 5
[6]; [15]
  Plant response rating, Chickweed: 98
[6]; [16]
  Plant response rating, Chickweed: 100
[6]; [17]
  Plant response rating, Chickweed: 100
[6]
  Chickweed plant response rating: 100
[7]; [15]
  Plant response rating, Barley: 0
[7]; [16]
  Plant response rating, Barley: 0
[7]; [17]
  Plant response rating, Barley: 0
[7]
  Barley plant response rating: 10
[8]; [15]
  Plant response rating, Canarygrass: 0
[8]; [16]
  Plant response rating, Canarygrass: 0
[8]; [17]
  Plant response rating, Canarygrass: 0
[8]
  Canarygrass plant response rating: 20
[9]; [18]
  Plant response rating, Pigweed: 100
[9]; [19]
  Plant response rating, Pigweed: 100
[9]; [20]
  Plant response rating, Pigweed: 100
[9]; [21]
  Plant response rating, Pigweed: 90
[9]; [22]
  Pigweed plant response rating: 100
[10]; 250 g ai/ha, 0 to 100 scale
  Plant response rating, Galium: 85
[10]; [15]
  Plant response rating, Galium: 70
[10]; [23]
  Plant response rating, Galium: 80
[10]; 0 to 100 scale
  Galium plant response rating: 85
[11]; 250 g ai/ha, 0 to 100 scale
  Plant response rating, Nightshade: 100
[11]; [15]
  Plant response rating, Nightshade: 50
[11]; [23]
  Plant response rating, Nightshade: 100
[11]; 0 to 100 scale
  Nightshade plant response rating: 100
[12]; 250 g ai/ha, 0 to 100 scale
  Plant response rating, Sunflower: 65
[12]; [15]
  Plant response rating, Sunflower: 0
[12]; 0 to 100 scale
  Sunflower plant response rating: 25
Wild oat (Avena fatua); [18]
  Plant response rating, Oat, Wild: 0
Wild oat (Avena fatua); [19]
  Plant response rating, Oat, Wild: 20
Wild oat (Avena fatua); [20]
  Plant response rating, Oat, Wild: 30
Wild oat (Avena fatua); [21]
  Plant response rating, Oat, Wild: 0
Wild oat (Avena fatua); [22]
  Oat, Wild plant response rating: 0

## Cc1cccc(-n2c(-c3cccc(Cl)c3)ncc(C(=O)C3=C(O)CCCC3=O)c2=O)c1 [Compound 45]
[1]
  Plant response rating, Flood, Sedge, Umbrella: 85
[1]; [24]
  Plant response rating, Sedge, Umbrella: 70
[2]
  Plant response rating, Flood, Ducksalad: 90
[2]; [24]
  Plant response rating, Ducksalad: 20
Rice (Oryza sativa)
  Plant response rating, Flood, Rice: 20
Rice (Oryza sativa); [24]
  Plant response rating, Rice: 15
[3]
  Plant response rating, Flood, Barnyardgrass: 30
[3]; [24]
  Plant response rating, Barnyardgrass: 0
[4]
  Plant response rating, Goosegrass: 100
[5]; 62 g ai/ha, 13 to 15 days
  Plant response rating, Windgrass: 60
[5]; [14]
  Plant response rating, Windgrass: 70
[6]; [15]
  Plant response rating, Chickweed: 75
[6]; [16]
  Plant response rating, Chickweed: 85
[6]; [17]
  Plant response rating, Chickweed: 98
[6]
  Chickweed plant response rating: 100
[7]; [15]
  Plant response rating, Barley: 5
[7]; [16]
  Plant response rating, Barley: 5
[7]; [17]
  Plant response rating, Barley: 5
[7]
  Barley plant response rating: 5
[8]; [15]
  Plant response rating, Canarygrass: 10
[8]; [16]
  Plant response rating, Canarygrass: 10
[8]; [17]
  Plant response rating, Canarygrass: 30
[8]
  Canarygrass plant response rating: 30
[9]; [18]
  Plant response rating, Pigweed: 100
[9]; [19]
  Plant response rating, Pigweed: 98
[9]; [20]
  Plant response rating, Pigweed: 100
[9]; [21]
  Plant response rating, Pigweed: 85
[9]; [22]
  Pigweed plant response rating: 100
[10]; 250 g ai/ha, 0 to 100 scale
  Plant response rating, Galium: 85
[10]; [15]
  Plant response rating, Galium: 40
[10]; [23]
  Plant response rating, Galium: 40
[10]; 0 to 100 scale
  Galium plant response rating: 50
[11]; 250 g ai/ha, 0 to 100 scale
  Plant response rating, Nightshade: 100
[11]; [15]
  Plant response rating, Nightshade: 98
[11]; [23]
  Plant response rating, Nightshade: 100
[11]; 0 to 100 scale
  Nightshade plant response rating: 100
[12]; 250 g ai/ha, 0 to 100 scale
  Plant response rating, Sunflower: 75
[12]; [15]
  Plant response rating, Sunflower: 0
[12]; 0 to 100 scale
  Sunflower plant response rating: 10
Wild oat (Avena fatua); [18]
  Plant response rating, Oat, Wild: 5
Wild oat (Avena fatua); [19]
  Plant response rating, Oat, Wild: 55
Wild oat (Avena fatua); [20]
  Plant response rating, Oat, Wild: 60
Wild oat (Avena fatua); [21]
  Plant response rating, Oat, Wild: 0
Wild oat (Avena fatua); [22]
  Oat, Wild plant response rating: 0
